For 2 molecules, Kd and STD-NMR results are on record in article PMC11571054, “Unveiling the GT114 family: Structural characterization of A075L, a glycosyltransferase from Paramecium bursaria chlorella virus‐1 (PBCV‐1)” (Protein Science : A Publication of the Protein Society, 2024).

Experiment [1] deals with T1, A075L (Paramecium bursaria Chlorella virus 1, UniProt Q89410).
T1 construct: recombinant in E. coli BL21 Gold (SeMet in B834); GST tag cut with PreScission protease; GST kept only for mutant D73A
T1 sequence (Q89410 1-280): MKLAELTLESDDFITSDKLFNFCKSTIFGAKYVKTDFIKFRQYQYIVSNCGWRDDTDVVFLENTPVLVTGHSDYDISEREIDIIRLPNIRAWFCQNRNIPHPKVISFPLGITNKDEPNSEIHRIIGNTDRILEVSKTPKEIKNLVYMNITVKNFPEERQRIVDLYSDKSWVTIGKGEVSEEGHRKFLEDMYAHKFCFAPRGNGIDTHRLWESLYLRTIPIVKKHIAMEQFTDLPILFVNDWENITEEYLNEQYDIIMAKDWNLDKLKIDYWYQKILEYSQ
Put plainly: ITC. It counts as binding.

For experiment [2], the target named is T1, A075L. Kind of experiment: STD-NMR. It counts as binding. The following applies: 1:40 enzyme-acceptor ratio; 25 °C; binds but is not glycosylated.

On to `O=c1ccn([C@@H]2O[C@H](COP(=O)(O)OP(=O)(O)O[C@H]3OC[C@@H](O)[C@H](O)[C@H]3O)[C@@H](O)[C@H]2O)c(=O)[nH]1` [compound 1, UDP‐α‐D‐Xyl], for which, in experiment [1], binding was put at a Kd of 31 µM.
For the molecule `CCCCCCCCO[C@@H]1O[C@@H](C)[C@@H](O)[C@@H](O)[C@@H]1O[C@H]1O[C@H](CO)[C@H](O)[C@H](O)[C@H]1O` [compound 5, α‐D‐Gal‐(1 → 2)‐α‐L‐Fuc‐Octyl], the STD-NMR result in experiment [2] is reported as “despite their lower reactivity, both disaccharides can be accommodated in the binding site”.
